US20080318892A1, “METHODS AND FORMULATIONS FOR PROTECTING CELLS, AND FOR TREATING DISEASES AND CONDITIONS BY OPTIMIZING THE INTRACELLULAR CONCENTRATION OF NAD” (priority 2007, published 2008)

Legend:
[1] = test system: primary human vascular SMCs; assay: Replicative lifespan (cumulative population doublings) of primary SMCs; assay type: cell-based; conditions: primary adult SMCs overexpressing Nampt
HITB5 SMC's = assay: SMC proliferation (cell accumulation over 11 days); assay type: cell-based, human; conditions: PBEF-overexpressing HITB5 SMCs, 5% serum, p<0.01 vs EGFP control
Description: Cell Proliferation, DNA Synthesis, and Apoptosis were also evaluated. To assess SMC proliferation, cells were plated at a density of 3000 cells per cm^2 and cultured in M199 containing 5% FBS. Triplicate wells were harvested at the designated times and counted using a hemacytometer. To quantify DNA synthesis, cells in log-phase growth were incubated for 12 hours with [^3H]thymidine (10 μCi/mL) and TCA-precipitable counts determined as described (5). Thymidine incorporation was expressed relative to DNA content, quantified by spectrofluorimetry of an aliquot of cell lysate incubated with 500 μg/ml Hoechst 33258. Apoptosis was assessed in SMCs seeded on glass coverslips by in situ end-labeling of DNA fragments using terminal deoxynucleotide transferase and fluorescein 12-dUTP (Promega) (5). Cells were fixed with 4% paraformaldehyde and counterstained with Hoechst 33258.

[2] = test system: human aortic endothelial cells; assay: Longevity and genomic stability (tetraploidy) of human aortic endothelial cells under glucose stress; assay type: cell-based; conditions: for longevity: cells overexpressing NamPT
Description: Generation of Nampt-overexpressing HAEC populations. HAEC were infected with retrovirus encoding an eGFP-Nampt fusion protein. A control population was infected with eGFP alone. Transduced HAEC were FACS selected for low (eGFP-Namptlo) and high (eGFP-Nampthi) levels of transgene expression based on GFP fluorescence. Control cells were selected to achieve eGFP expression (eGFP+) at a level similar to the eGFP-Namptlo cells. Levels of GFP fluorescence were confirmed by microscopy.
Assessment of longevity and genomic stability. Triplicate cell populations were plated at 1000 cells/cm2 and were serially subcultured at 80% confluence until growth curves reached plateau. Population doublings were calculated using the standard formula. At certain time points cells were harvested, fixed, and DNA content was analyzed. Tetraploid cells were counted as a proportion of the total population using ModFit software.

[3] = test system: fibroblasts derived from a subject with HGPS; assay: Replicative lifespan of HGPS fibroblasts; assay type: cell-based, human; conditions: HGPS fibroblasts transduced with Nampt cDNA
Description: Cell Culture. Experiments were performed using primary human vascular SMCs derived by outgrowth from fragments of internal thoracic artery and the HITC6 SMC clonal line, also originally generated from the human internal thoracic artery (Li, 2001). Derman fibroblasts from an individual with Hutchinson-Gilford Progeria Syndrome (HGPS) were obtained from Coreill Cell Repository.
To quantify replication, cells were plated at 4500 cells/cm^2 and growth medium with 10% FBS was changed every two days until cells reached 90-95% confluence. Harvested cells were counted from triplicate plates and the number of population doublings was calculated based on: [log10(number of cells harvested)−log10(number of cells seeded)]/[…] (Fukuhara, 2005). Population growth curves were compared using both nonlinear regression and two-way analysis of variance.

[4] = test system: microvessels invested by human SMC's; assay: Human-mouse chimeric angiogenesis in vivo (matrigel implants); set-up: species or system SCID mice; conditions: matrigel implants with PBEF-overexpressing SMC's, 8 days; p<0.05 vs vector
Description: Human-Mouse Chimeric Angiogenesis in vivo was measured. HITC6 SMCs in M199 with 10% FBS and fibroblast growth factor-2 (FGF-2) were mixed with an equal volume of growth factor-reduced matrigel (BD Discovery Labware) yielding final concentrations of 5×10^5 cells/ml and 250 ng/ml FGF-2. The cell-matrigel suspension (500 μl) was subcutaneously injected into the abdomen of mice with severe combined immunodeficiency syndrome (SCID). After 8 days, implants were harvested, fixed for 8 h in Tris-buffered zinc (32), and paraffin-embedded tissues were sectioned at 5 μm. […] Tissue was then incubated with rabbit anti-GFP (1:200, BD Clontech, Palo Alto, Calif.) and bound primary antibody detected with alkaline phosphatase-conjugated goat anti-rabbit secondary antibody and visualized with red alkaline phosphatase substrate (Vector). […]
Human-Mouse Chimeric Angiogenesis in vivo was measured. […] Tissue was then incubated with rabbit anti-GFP (1:200, BD Clontech, Palo Alto, Calif.) and bound primary antibody detected with alkaline phosphatase-conjugated goat anti-rabbit secondary antibody and visualized with red alkaline phosphatase substrate (Vector). […]

For “PBEF: 52-55 kD protein, rate-limiting enzyme for NAD+ biosynthesis from nicotinamide; tested by retroviral cDNA overexpression in cells”, the “additional population doublings beyond vector-infected SMCs” value [1] was 2.1±0.3 population doublings, the prolongation of lifespan ([1]; p=0.01) was 34±4% and the doubling time (HITB5 SMC's) was 5.4 days. The “age- or high glucose-induced tetraploidy” value ([2]; Nampt overexpressing cells) was “no occurrence”, the longevity ([2]; glucose stress (30 mM glucose)) was “significantly augmented longevity” and the longevity ([2]; normal glucose (5 mM)) was “mildly improved longevity”. The cell lifespan extension [3] was “also seen” and the “proportion of microvessels invested by one or more human SMC's” value [4] was 17.8±2.5%.
